These results are taken from US20240150298A1, “ANTIBACTERIAL COMPOUNDS” (Blacksmith Medicines, Inc., priority 2021, published 2024).

Structures are written as SMILES. Converted amounts (≈) assume the structure as drawn. Bounds are passed on as bounds.

The subject of one assay is P. aeruginosa ATCC27835. The experiment in a line: Bacterial susceptibility testing, MIC by broth microdilution (CLSI). The format is cell-based. Conditions: 35° C., 18-24 h; for MIC: Pseudomonas aeruginosa, ATCC27835, broth microdilution, read-out: MIC P. aeruginosa ATCC27835. The method, boiled down:
(§1)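 Broth microdilution per CLSI in cation-adjusted Mueller-Hinton broth, inoculum 3×10^5–7×10^5 CFU/mL, 2-fold serial drug dilutions in DMSO. Incubated in ambient air at 35° C for 18-24 h. MIC taken as lowest concentration preventing visible growth (OD600 nm<0.05).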
(In general: Broth dilution looks for growth in wells or tubes with falling amounts of substance.)

The subject of a further assay is P. aeruginosa 209 PAO1. Described as above. The format is cell-based. To be noted: 35° C., 18-24 h; for MIC: Pseudomonas aeruginosa, PAO1, broth microdilution, read-out: MIC P. aeruginosa 209 PAO1. An outline of the steps:
as §1

The next assay concerns K. pneumoniae ATCC13883. The assay is described as above. The format is cell-based. Conditions: 35° C., 18-24 h; for MIC: Klebsiella pneumoniae, ATCC13883, broth microdilution, read-out: MIC K. pneumoniae ATCC13883. The method, boiled down:
as §1

The test system of a further assay is E. coli ATCC25922. The description is as above. The format is cell-based. To be noted: 35° C., 18-24 h; for MIC: Escherichia coli, ATCC25922, broth microdilution, read-out: MIC E. coli ATCC25922. The method, boiled down:
as §1

A further assay concerns the target T1, P. aeruginosa LpxC (Pseudomonas aeruginosa, UniProt P47205).
T1 sequence (P47205 1-303): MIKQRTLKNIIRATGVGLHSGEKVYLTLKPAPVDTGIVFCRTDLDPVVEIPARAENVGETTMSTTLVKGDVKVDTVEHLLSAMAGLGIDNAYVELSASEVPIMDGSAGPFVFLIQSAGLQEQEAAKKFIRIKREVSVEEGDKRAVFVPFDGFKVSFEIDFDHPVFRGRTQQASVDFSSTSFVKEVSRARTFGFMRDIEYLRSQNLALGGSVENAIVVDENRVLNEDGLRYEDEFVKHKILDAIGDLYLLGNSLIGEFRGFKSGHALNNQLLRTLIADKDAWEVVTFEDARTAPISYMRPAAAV
The experiment in a line: LpxC Binding Assay (Rapid Fire MS assay). The format is biochemical. As for the experimental part: (§2) IC50 values against E. coli and P. aeruginosa LpxC are determined using a Rapid Fire MS assay as previously described J. Med. Chem. 2012, 55, 1662-1670.

In the next assay the target is E. coli LpxC (Escherichia coli, UniProt P0A725). The experiment in a line: LpxC Binding Assay (Rapid Fire MS assay). The format is biochemical. The procedure: as §2
A further assay concerns the target K. pneumoniae LpxC (Klebsiella pneumoniae subsp. pneumoniae, UniProt A6T4N9). The experiment in a line: LpxC Binding Assay (Rapid Fire MS assay). The format is biochemical.

A word on the MIC: it is the least concentration at which growth counts as inhibited. One may read the IC50 as the concentration at which inhibition is half-maximal. The low end stands for higher potency, the high end for lower potency.

Chain of E. coli LpxC (P0A725 whole entry): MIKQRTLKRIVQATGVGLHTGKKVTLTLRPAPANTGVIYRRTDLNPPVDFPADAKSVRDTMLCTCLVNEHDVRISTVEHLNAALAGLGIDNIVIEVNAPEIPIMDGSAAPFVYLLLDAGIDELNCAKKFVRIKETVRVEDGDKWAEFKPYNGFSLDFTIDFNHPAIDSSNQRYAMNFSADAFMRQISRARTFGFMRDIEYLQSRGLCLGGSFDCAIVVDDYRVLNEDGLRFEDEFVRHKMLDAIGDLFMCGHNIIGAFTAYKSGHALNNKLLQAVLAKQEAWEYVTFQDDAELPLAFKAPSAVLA
Chain of K. pneumoniae LpxC (A6T4N9 whole entry): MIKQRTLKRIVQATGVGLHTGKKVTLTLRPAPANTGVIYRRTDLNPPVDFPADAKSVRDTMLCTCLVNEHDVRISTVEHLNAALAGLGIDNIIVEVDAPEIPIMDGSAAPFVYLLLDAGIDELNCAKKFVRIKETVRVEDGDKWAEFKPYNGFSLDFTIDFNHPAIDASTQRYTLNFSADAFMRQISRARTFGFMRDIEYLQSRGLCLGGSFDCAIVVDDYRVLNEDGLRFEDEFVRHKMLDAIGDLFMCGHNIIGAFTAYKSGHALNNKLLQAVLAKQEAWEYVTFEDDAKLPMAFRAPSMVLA

For the molecule `C[C@H](O)c1nccn1C/C=C/c1ccc(-c2ccc(OC3CCN(CCO)CC3)cc2)cc1` [Compound 1, (S,E)-2-(4-((4′-(3-(2-(1-hydroxyethyl)-1H-imidazol-1-yl)prop-1-en-1-yl)-[1,1′-biphenyl]-4-yl)oxy)piperidin-1-yl)ethan-1-ol], the MIC in the assay with P. aeruginosa ATCC27835 turned out to be 4 mg/L (≈ 8.94 µM); in the assay on P. aeruginosa 209 PAO1, 4 mg/L (≈ 8.94 µM); in the assay with K. pneumoniae ATCC13883 it was 1 mg/L (≈ 2.23 µM); in the assay with E. coli ATCC25922, 1 mg/L (≈ 2.23 µM). Further, the values for the IC50 on P. aeruginosa LpxC and at E. coli LpxC were 0.081 µM and 0.0258 µM, respectively.
As to `C[C@H](O)c1nccn1[C@@H](/C=C/c1ccc(-c2ccc(C3CC(N4CC(O)C4)C3)cc2)cc1)CO` (stereo partly drawn) [Compound 38, 1-(3-(4′-((S,E)-4-hydroxy-3-(2-((S)-1-hydroxyethyl)-1H-imidazol-1-yl)but-1-en-1-yl)-[1,1′-biphenyl]-4-yl)cyclobutyl)azetidin-3-ol], the values for the IC50 on K. pneumoniae LpxC, on P. aeruginosa LpxC and on E. coli LpxC were 0.0016 µM, 0.0275 µM and 0.0009 µM, respectively. Also, the MIC in the assay with P. aeruginosa ATCC27835, in the assay on P. aeruginosa 209 PAO1 and in the assay on K. pneumoniae ATCC13883 was 2 mg/L (≈ 4.35 µM) in each case.
On to `C[C@H](O)c1nccn1[C@@H](/C=C/c1ccc(-c2ccc(O[C@H]3C[C@@H]3N)cc2)cc1)CO` (single isomer, unassigned) [Compound 14], for which the MIC in the assay on P. aeruginosa ATCC27835 stood at 8 mg/L (≈ 19.7 µM); in the assay with P. aeruginosa 209 PAO1, 1 mg/L (≈ 2.47 µM); with K. pneumoniae ATCC13883 it was 2 mg/L (≈ 4.93 µM); in the assay on E. coli ATCC25922 it was 1 mg/L (≈ 2.47 µM). Moreover, the figures for the IC50 at P. aeruginosa LpxC and on E. coli LpxC were 0.0223 µM and 0.00951 µM, respectively.
For the molecule `C[C@H](O)c1nccn1[C@@H](/C=C/c1ccc(-c2ccc(OCC(CO)CO)cc2)cc1)CO` [Compound 33, 2-(((4′-((S,E)-4-hydroxy-3-(2-((S)-1-hydroxyethyl)-1H-imidazol-1-yl)but-1-en-1-yl)-[1,1′-biphenyl]-4-yl)oxy)methyl)propane-1,3-diol], the IC50 was 0.0016 µM on K. pneumoniae LpxC, 0.0119 µM at P. aeruginosa LpxC and 0.001 µM on E. coli LpxC. The MIC in the assay with P. aeruginosa ATCC27835 came out at 4 mg/L (≈ 9.12 µM); in the assay on P. aeruginosa 209 PAO1, 2 mg/L (≈ 4.56 µM); in the assay with K. pneumoniae ATCC13883, 8 mg/L (≈ 18.2 µM).
As for `C[C@H](O)c1nccn1[C@@H](/C=C/c1ccc(-c2ccc(O[C@H]3COC[C@@H]3O)cc2)cc1)CO` (racemic) [Compound 35, (trans)-4-((4′-((S,E)-4-hydroxy-3-(2-((S)-1-hydroxyethyl)-1H-imidazol-1-yl)but-1-en-1-yl)-[1,1′-biphenyl]-4-yl)oxy)tetrahydrofuran-3-ol], the figures for the IC50 at K. pneumoniae LpxC, on P. aeruginosa LpxC and on E. coli LpxC were 0.0009 µM, 0.0082 µM and under 0.0005 µM, respectively. In addition, the MIC in the assay with P. aeruginosa ATCC27835 is 4 mg/L (≈ 9.16 µM); in the assay on P. aeruginosa 209 PAO1, 1 mg/L (≈ 2.29 µM); in the assay with K. pneumoniae ATCC13883, 2 mg/L (≈ 4.58 µM).
With `C[C@H](O)c1nccn1C/C=C/c1ccc(-c2ccc(OC3CCN(CC(O)CO)CC3)cc2)cc1` (stereo partly drawn) [Compound 2, 3-(4-((4′-((E)-3-(2-((S)-1-hydroxyethyl)-1H-imidazol-1-yl)prop-1-en-1-yl)-[1,1′-biphenyl]-4-yl)oxy)piperidin-1-yl)propane-1,2-diol], the MIC in the assay on P. aeruginosa ATCC27835 was found to be 4 mg/L (≈ 8.38 µM); with P. aeruginosa 209 PAO1, 4 mg/L (≈ 8.38 µM); with K. pneumoniae ATCC13883 it was 2 mg/L (≈ 4.19 µM); in the assay on E. coli ATCC25922, 1 mg/L (≈ 2.09 µM). For the same molecule, the IC50 at P. aeruginosa LpxC came to 0.0155 µM; at E. coli LpxC it was 0.017 µM.
Take `C[C@H](O)c1nccn1[C@@H](/C=C/c1ccc(-c2ccc(O[C@H]3COC[C@@H]3N)cc2)cc1)CO` (racemic) [Compound 34, (S,E)-4-(4′-(((trans)-4-aminotetrahydrofuran-3-yl)oxy)-[1,1′-biphenyl]-4-yl)-2-(2-((S)-1-hydroxyethyl)-1H-imidazol-1-yl)but-3-en-1-ol]: the IC50 turned out to be 0.0019 µM on K. pneumoniae LpxC, 0.0189 µM at P. aeruginosa LpxC and 0.0011 µM at E. coli LpxC. Also, the MIC turned out to be 4 mg/L (≈ 9.18 µM) in the assay on P. aeruginosa ATCC27835, 0.5 mg/L (≈ 1.15 µM) in the assay on P. aeruginosa 209 PAO1 and 2 mg/L (≈ 4.59 µM) in the assay with K. pneumoniae ATCC13883.
`C[C@H](O)c1nccn1[C@@H](/C=C/c1ccc(-c2ccc(OCC(CO)N(C)C)cc2)cc1)CO` (mixture of isomers) [Compound 12, (2S,E)-4-(4′-(2-(dimethylamino)-3-hydroxypropoxy)-[1,1′-biphenyl]-4-yl)-2-(2-((S)-1-hydroxyethyl)-1H-imidazol-1-yl)but-3-en-1-ol]: the MIC was 4 mg/L (≈ 8.86 µM) in the assay with P. aeruginosa ATCC27835, 4 mg/L (≈ 8.86 µM) in the assay with P. aeruginosa 209 PAO1, 16 mg/L (≈ 35.4 µM) in the assay on K. pneumoniae ATCC13883 and 4 mg/L (≈ 8.86 µM) in the assay on E. coli ATCC25922. Also, the IC50 came to 0.0692 µM at P. aeruginosa LpxC and 0.0825 µM at E. coli LpxC.
As for `C[C@H](O)c1nccn1C/C=C/c1ccc(-c2ccc(O[C@@H]3C[C@H]3N)cc2)cc1` (racemic) [Compound 4, (S)-1-(1-((E)-3-(4′-((trans)-2-aminocyclopropoxy)-[1,1′-biphenyl]-4-yl)allyl)-1H-imidazol-2-yl)ethan-1-ol], the MIC in the assay on P. aeruginosa ATCC27835 was determined as 4 mg/L (≈ 10.7 µM); with P. aeruginosa 209 PAO1, 2 mg/L (≈ 5.33 µM); in the assay with K. pneumoniae ATCC13883 it was 0.12 mg/L (≈ 0.32 µM); in the assay on E. coli ATCC25922, 0.12 mg/L (≈ 0.32 µM). The IC50 amounted to 0.0232 µM on P. aeruginosa LpxC and 0.00925 µM at E. coli LpxC.
`C[C@H](O)c1nccn1C/C=C/c1ccc(-c2ccc(OC[C@H](N)CO)cc2)cc1` [Compound 3, (R)-2-amino-3-((4′-((E)-3-(2-((S)-1-hydroxyethyl)-1H-imidazol-1-yl)prop-1-en-1-yl)-[1,1′-biphenyl]-4-yl)oxy)propan-1-ol]: the MIC with P. aeruginosa ATCC27835 was determined as 4 mg/L (≈ 10.2 µM); in the assay on P. aeruginosa 209 PAO1, 4 mg/L (≈ 10.2 µM); in the assay with K. pneumoniae ATCC13883, 8 mg/L (≈ 20.3 µM); with E. coli ATCC25922, 2 mg/L (≈ 5.08 µM). Besides, the IC50 amounted to 0.132 µM at P. aeruginosa LpxC and 0.0114 µM on E. coli LpxC.
On to `C[C@H](O)c1nccn1[C@@H](/C=C/c1ccc(-c2ccc(OC[C@@H](O)CN(C)C)cc2)cc1)CO` [Compound 26, (S,E)-4-(4′-((S)-3-(dimethylamino)-2-hydroxypropoxy)-[1,1′-biphenyl]-4-yl)-2-(2-((S)-1-hydroxyethyl)-1H-imidazol-1-yl)but-3-en-1-ol], for which the IC50 was found to be 0.0014 µM at K. pneumoniae LpxC, 0.0174 µM on P. aeruginosa LpxC and 0.0006 µM at E. coli LpxC. The MIC is 8 mg/L (≈ 17.7 µM) in the assay on P. aeruginosa ATCC27835, 4 mg/L (≈ 8.86 µM) in the assay with P. aeruginosa 209 PAO1 and 2 mg/L (≈ 4.43 µM) in the assay with K. pneumoniae ATCC13883.
Regarding `C[C@H](O)c1nccn1[C@@H](/C=C/c1ccc(-c2ccc(OCC(N)CO)cc2)cc1)CO` (mixture of isomers) [Compound 25, (2S,E)-4-(4′-(2-amino-3-hydroxypropoxy)-[1,1′-biphenyl]-4-yl)-2-(2-((S)-1-hydroxyethyl)-1H-imidazol-1-yl)but-3-en-1-ol], the “MIC P. aeruginosa ATCC27835” value against P. aeruginosa ATCC27835 (broth microdilution) was found to be 2 mg/L (≈ 4.72 µM). The “MIC P. aeruginosa 209 PAO1” value against P. aeruginosa 209 PAO1 (broth microdilution) was 2 mg/L (≈ 4.72 µM). Also, the “MIC K. pneumoniae ATCC13883” value in the assay with K. pneumoniae ATCC13883 (broth microdilution) amounted to 4 mg/L (≈ 9.44 µM). Besides, the “MIC E. coli ATCC25922” value against E. coli ATCC25922 (broth microdilution) came out at 2 mg/L (≈ 4.72 µM). The IC50 at P. aeruginosa LpxC stood at 0.0706 µM; at E. coli LpxC, 0.0446 µM.
`C[C@H](O)c1nccn1[C@@H](/C=C/c1ccc(-c2ccc(C3CC(NCCC#N)C3)cc2)cc1)CO` (stereo partly drawn) [Compound 37, 3-((3-(4′-((S,E)-4-hydroxy-3-(2-((S)-1-hydroxyethyl)-1H-imidazol-1-yl)but-1-en-1-yl)-[1,1′-biphenyl]-4-yl)cyclobutyl)amino)propanenitrile]: the IC50 at K. pneumoniae LpxC is 0.0007 µM; on P. aeruginosa LpxC, 0.0152 µM; at E. coli LpxC it was under 0.0005 µM. Further, the MIC with P. aeruginosa ATCC27835 came to 4 mg/L (≈ 8.76 µM); in the assay on P. aeruginosa 209 PAO1 it was 2 mg/L (≈ 4.38 µM); with K. pneumoniae ATCC13883, 0.5 mg/L (≈ 1.1 µM).
